Literature values as cited in patent publication US8143297B2, “Heterocyclic derivatives as modulators of ion channels” (Vertex Pharmaceuticals Incorporated, priority 2008, dated 2012).

How the values were obtained:
Details in all cases: read-out: TTX IC50
NaV1.3 = NaV1.3 (Homo sapiens, UniProt Q9NY46)
NaV1.6 = NaV1.6 (Homo sapiens, UniProt Q9UQD0)
NaV1.8 = NaV1.8 (Homo sapiens, UniProt Q9Y5Y9)
NaV1.9 = NaV1.9 (Homo sapiens, UniProt Q9UI33)
NaV1.1 = NaV1.1 (Homo sapiens, UniProt P35498)
NaV1.2 = NaV1.2 (Homo sapiens, UniProt Q99250)

Sequence of NaV1.3 (Q9NY46 whole entry, looked up): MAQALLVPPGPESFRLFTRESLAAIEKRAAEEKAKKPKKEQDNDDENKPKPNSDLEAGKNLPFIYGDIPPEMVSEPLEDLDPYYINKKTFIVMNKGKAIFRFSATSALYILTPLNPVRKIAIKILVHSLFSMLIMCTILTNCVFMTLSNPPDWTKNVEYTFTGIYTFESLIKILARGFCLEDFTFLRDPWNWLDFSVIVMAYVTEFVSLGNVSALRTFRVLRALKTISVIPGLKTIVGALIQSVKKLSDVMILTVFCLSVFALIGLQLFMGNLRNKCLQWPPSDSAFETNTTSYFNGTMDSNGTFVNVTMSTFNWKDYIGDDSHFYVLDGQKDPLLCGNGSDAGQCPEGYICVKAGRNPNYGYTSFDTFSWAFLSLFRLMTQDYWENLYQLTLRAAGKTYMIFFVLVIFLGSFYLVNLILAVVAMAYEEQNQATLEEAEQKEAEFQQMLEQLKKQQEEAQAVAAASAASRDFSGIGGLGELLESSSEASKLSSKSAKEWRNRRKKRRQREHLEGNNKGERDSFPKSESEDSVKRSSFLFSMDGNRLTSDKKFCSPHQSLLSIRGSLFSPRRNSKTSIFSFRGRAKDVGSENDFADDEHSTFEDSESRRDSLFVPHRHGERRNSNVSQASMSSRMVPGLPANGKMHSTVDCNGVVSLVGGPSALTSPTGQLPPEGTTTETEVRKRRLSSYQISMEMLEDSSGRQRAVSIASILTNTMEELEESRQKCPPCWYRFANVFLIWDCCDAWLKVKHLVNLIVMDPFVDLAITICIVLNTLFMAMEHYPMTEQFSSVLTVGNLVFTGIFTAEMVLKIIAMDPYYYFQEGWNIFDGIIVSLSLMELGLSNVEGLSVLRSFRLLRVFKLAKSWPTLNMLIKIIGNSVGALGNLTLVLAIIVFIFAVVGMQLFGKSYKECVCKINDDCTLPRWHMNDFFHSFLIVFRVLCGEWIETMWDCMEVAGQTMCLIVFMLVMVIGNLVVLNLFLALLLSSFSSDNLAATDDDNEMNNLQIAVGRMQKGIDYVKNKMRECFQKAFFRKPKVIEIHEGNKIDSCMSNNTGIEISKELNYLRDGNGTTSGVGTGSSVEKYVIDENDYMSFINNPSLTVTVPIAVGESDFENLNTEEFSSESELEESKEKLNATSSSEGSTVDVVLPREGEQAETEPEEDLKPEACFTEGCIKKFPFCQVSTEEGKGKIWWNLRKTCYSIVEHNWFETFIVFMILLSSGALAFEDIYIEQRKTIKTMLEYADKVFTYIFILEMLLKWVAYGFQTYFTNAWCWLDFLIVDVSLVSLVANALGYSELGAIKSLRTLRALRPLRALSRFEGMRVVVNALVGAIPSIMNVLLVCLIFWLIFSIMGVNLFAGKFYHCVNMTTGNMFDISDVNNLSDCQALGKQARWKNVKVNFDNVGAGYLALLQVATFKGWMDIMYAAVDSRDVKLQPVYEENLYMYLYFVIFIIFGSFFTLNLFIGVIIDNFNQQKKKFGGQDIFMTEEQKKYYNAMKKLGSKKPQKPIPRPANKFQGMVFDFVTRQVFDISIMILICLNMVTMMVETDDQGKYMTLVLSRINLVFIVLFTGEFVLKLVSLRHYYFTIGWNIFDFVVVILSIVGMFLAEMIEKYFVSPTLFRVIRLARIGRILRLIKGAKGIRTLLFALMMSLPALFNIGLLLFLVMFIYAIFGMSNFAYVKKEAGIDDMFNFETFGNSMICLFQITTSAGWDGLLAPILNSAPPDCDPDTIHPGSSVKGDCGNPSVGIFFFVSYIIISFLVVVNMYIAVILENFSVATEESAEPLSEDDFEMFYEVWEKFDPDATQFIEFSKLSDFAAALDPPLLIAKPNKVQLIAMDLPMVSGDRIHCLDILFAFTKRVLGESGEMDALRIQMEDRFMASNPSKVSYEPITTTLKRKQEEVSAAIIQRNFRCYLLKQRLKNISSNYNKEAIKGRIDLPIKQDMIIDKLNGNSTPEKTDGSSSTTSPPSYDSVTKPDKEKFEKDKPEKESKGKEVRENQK
Sequence of NaV1.6 (Q9UQD0 whole entry, looked up): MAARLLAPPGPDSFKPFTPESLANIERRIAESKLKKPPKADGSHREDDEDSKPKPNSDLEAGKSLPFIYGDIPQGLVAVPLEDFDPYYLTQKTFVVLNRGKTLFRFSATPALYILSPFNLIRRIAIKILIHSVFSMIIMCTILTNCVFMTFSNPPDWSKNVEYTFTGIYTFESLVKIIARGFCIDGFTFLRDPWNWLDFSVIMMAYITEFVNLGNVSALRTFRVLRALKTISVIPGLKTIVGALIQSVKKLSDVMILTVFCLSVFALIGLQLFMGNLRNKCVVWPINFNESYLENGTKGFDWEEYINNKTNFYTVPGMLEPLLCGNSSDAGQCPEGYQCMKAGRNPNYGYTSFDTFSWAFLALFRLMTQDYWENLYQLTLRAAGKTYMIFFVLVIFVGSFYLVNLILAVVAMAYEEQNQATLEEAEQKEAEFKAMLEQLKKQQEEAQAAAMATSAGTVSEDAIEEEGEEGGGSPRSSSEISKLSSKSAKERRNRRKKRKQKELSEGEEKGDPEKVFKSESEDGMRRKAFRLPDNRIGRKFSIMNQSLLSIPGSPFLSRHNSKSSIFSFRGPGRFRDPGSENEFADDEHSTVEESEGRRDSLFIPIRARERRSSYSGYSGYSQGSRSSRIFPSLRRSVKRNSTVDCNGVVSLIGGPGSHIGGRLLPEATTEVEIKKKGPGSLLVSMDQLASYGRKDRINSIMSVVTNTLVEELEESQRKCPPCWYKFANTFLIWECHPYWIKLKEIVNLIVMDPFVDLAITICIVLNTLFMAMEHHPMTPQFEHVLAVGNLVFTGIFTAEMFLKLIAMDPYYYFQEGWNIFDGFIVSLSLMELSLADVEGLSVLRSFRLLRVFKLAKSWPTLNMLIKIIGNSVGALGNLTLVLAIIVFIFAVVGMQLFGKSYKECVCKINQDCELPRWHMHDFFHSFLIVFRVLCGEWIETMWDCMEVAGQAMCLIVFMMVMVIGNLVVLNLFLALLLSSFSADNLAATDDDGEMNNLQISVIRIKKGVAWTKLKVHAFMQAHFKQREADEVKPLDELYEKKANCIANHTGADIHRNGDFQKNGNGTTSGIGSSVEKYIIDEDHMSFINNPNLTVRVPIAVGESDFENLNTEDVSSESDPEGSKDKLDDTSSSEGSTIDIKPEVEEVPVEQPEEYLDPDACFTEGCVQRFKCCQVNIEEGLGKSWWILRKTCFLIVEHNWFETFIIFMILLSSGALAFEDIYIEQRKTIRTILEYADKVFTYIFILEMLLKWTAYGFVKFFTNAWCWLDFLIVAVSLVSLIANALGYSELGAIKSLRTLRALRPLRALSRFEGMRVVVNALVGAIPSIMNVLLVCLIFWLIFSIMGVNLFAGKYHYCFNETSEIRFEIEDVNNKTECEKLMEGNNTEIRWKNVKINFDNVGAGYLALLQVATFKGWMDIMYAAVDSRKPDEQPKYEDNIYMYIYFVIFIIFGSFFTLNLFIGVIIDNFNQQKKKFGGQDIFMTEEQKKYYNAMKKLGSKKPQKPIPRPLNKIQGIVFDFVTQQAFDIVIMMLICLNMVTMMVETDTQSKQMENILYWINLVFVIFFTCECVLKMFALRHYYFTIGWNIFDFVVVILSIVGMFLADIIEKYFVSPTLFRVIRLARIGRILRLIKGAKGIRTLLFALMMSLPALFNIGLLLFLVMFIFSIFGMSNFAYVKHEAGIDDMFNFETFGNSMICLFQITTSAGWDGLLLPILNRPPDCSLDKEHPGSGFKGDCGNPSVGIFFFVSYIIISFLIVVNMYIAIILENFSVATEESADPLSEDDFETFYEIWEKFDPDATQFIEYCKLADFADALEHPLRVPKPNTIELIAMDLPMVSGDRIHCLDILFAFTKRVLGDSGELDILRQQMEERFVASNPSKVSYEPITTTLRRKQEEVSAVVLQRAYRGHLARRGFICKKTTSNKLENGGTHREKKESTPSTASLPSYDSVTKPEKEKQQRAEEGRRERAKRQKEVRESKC

In the case of NC1=N[C@H](O)[C@H]2[C@H]3O[C@]4(O)O[C@@H]([C@@H](O)[C@@]2(N1)[C@@H]4O)[C@]3(O)CO [TTX, tetrodotoxin], the IC50 (NaV1.3) is listed as 15 nM, the IC50 (NaV1.6) is listed as 6 nM and the IC50 (NaV1.8) is listed as greater than 50000 nM. For the same molecule, the IC50 (NaV1.9) was 1000 nM, the IC50 (NaV1.1) was 10 nM and the IC50 (NaV1.2) was 10 nM.
